Test system: 782815-120-R-J1-PDC complex spheroid viability
Experiment: Anticancer human tumor 782815-120-R-J1-PDC patient-derived colon adenocarcinoma cell line growth inhibition [RAS]
Conditions: for IC50: curve of first compound; for viability, T/C: stronger effect = lower value
Method in brief: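 Tumour cells grown as complex spheroids with HUVEC endothelial cells and mesenchymal stem cells, treated with RAS pathway inhibitor combinations. Each agent spans half-log steps from near clinical Cmax, or 10 microM where Cmax is unknown.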
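Also: spheroids exposed to compounds for 7 days before reading.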
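For viability, T/C in this document: 100% = DMSO vehicle control viability.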

Question: What does the source list for CCc1c2c(nc3ccc(O)cc13)-c1cc3c(c(=O)n1C2)COC(=O)[C@]3(O)CC + C=CC(=O)N1CCN(c2nc(OCC3CCCN3C)nc3c(F)c(-c4nc(N)cc(C)c4C(F)(F)F)c(Cl)cc23)C(C)C1?
Answer: IC50 (second compound 0.00316 µM): 4.1 nM; IC50 (second compound 0.01 µM): 3.93 nM; IC50 (second compound 0.0316 µM): 4.6 nM; IC50 (second compound 0.1 µM): 3.92 nM; IC50 (second compound 0.316 µM): 4.07 nM; IC50 (second compound 1 µM): 4.39 nM; viability, T/C (second compound 0.00316 µM, first compound 0.000949 µM): 91.2%; viability, T/C (second compound 0.00316 µM, first compound 0.003 µM): 60.4%; viability, T/C (second compound 0.00316 µM, first compound 0.00949 µM): 22.1%; viability, T/C (second compound 0.00316 µM, first compound 0.03 µM): 9.72%; viability, T/C (second compound 0.00316 µM, first compound 0.0949 µM): 3.7%; viability, T/C (second compound 0.00316 µM, first compound 0.3 µM): 1.61%; viability, T/C (second compound 0.01 µM, first compound 0.000949 µM): 97.2%; viability, T/C (second compound 0.01 µM, first compound 0.003 µM): 58.9%; viability, T/C (second compound 0.01 µM, first compound 0.00949 µM): 21.3%; viability, T/C (second compound 0.01 µM, first compound 0.03 µM): 9.84%; viability, T/C (second compound 0.01 µM, first compound 0.0949 µM): 3.15%; viability, T/C (second compound 0.01 µM, first compound 0.3 µM): 1.53%; viability, T/C (second compound 0.0316 µM, first compound 0.000949 µM): 99.2%; viability, T/C (second compound 0.0316 µM, first compound 0.003 µM): 67.4%; viability, T/C (second compound 0.0316 µM, first compound 0.00949 µM): 20%; viability, T/C (second compound 0.0316 µM, first compound 0.03 µM): 9.96%; viability, T/C (second compound 0.0316 µM, first compound 0.0949 µM): 3.02%; viability, T/C (second compound 0.0316 µM, first compound 0.3 µM): 1.51%; viability, T/C (second compound 0.1 µM, first compound 0.000949 µM): 92.8%; viability, T/C (second compound 0.1 µM, first compound 0.003 µM): 59.4%; viability, T/C (second compound 0.1 µM, first compound 0.00949 µM): 19.2%; viability, T/C (second compound 0.1 µM, first compound 0.03 µM): 8.28%; viability, T/C (second compound 0.1 µM, first compound 0.0949 µM): 4.23%; viability, T/C (second compound 0.1 µM, first compound 0.3 µM): 1.49%; viability, T/C (second compound 0.316 µM, first compound 0.000949 µM): 100%; viability, T/C (second compound 0.316 µM, first compound 0.003 µM): 60.7%; viability, T/C (second compound 0.316 µM, first compound 0.00949 µM): 20.4%; viability, T/C (second compound 0.316 µM, first compound 0.03 µM): 9.08%; viability, T/C (second compound 0.316 µM, first compound 0.0949 µM): 3.9%; viability, T/C (second compound 0.316 µM, first compound 0.3 µM): 1.28%; viability, T/C (second compound 1 µM, first compound 0.000949 µM): 99.3%; viability, T/C (second compound 1 µM, first compound 0.003 µM): 65%; viability, T/C (second compound 1 µM, first compound 0.00949 µM): 19.3%; viability, T/C (second compound 1 µM, first compound 0.03 µM): 10.1%; viability, T/C (second compound 1 µM, first compound 0.0949 µM): 3.83%; viability, T/C (second compound 1 µM, first compound 0.3 µM): 1.36%

Question: What does the source list for C=CC(=O)Nc1cc(Nc2nccc(-c3cn(C)c4ccccc34)n2)c(OC)cc1N(C)CCN(C)C + CCn1c(-c2cc(N3CCN(C)CC3)cnc2C(C)OC)c2c3cc(ccc31)-c1csc(n1)CC(NC(=O)C1CC1C)C(=O)N1CCCC(N1)C(=O)OCC(C)(C)C2?
Answer: IC50 (second compound 0.000949 µM): > 1000 nM; IC50 (second compound 0.003 µM): > 1000 nM; IC50 (second compound 0.00949 µM): < 3.16 nM; IC50 (second compound 0.03 µM): < 3.16 nM; IC50 (second compound 0.0949 µM): < 3.16 nM; IC50 (second compound 0.3 µM): < 3.16 nM; viability, T/C (second compound 0.000949 µM, first compound 0.00316 µM): 71.5%; viability, T/C (second compound 0.000949 µM, first compound 0.01 µM): 71.2%; viability, T/C (second compound 0.000949 µM, first compound 0.0316 µM): 79%; viability, T/C (second compound 0.000949 µM, first compound 0.1 µM): 74%; viability, T/C (second compound 0.000949 µM, first compound 0.316 µM): 76.4%; viability, T/C (second compound 0.000949 µM, first compound 1 µM): 68.6%; viability, T/C (second compound 0.003 µM, first compound 0.00316 µM): 59.3%; viability, T/C (second compound 0.003 µM, first compound 0.01 µM): 60.3%; viability, T/C (second compound 0.003 µM, first compound 0.0316 µM): 55.6%; viability, T/C (second compound 0.003 µM, first compound 0.1 µM): 55.7%; viability, T/C (second compound 0.003 µM, first compound 0.316 µM): 54.7%; viability, T/C (second compound 0.003 µM, first compound 1 µM): 47.9%; viability, T/C (second compound 0.00949 µM, first compound 0.00316 µM): 31.2%; viability, T/C (second compound 0.00949 µM, first compound 0.01 µM): 35.6%; viability, T/C (second compound 0.00949 µM, first compound 0.0316 µM): 34.2%; viability, T/C (second compound 0.00949 µM, first compound 0.1 µM): 29.6%; viability, T/C (second compound 0.00949 µM, first compound 0.316 µM): 28.3%; viability, T/C (second compound 0.00949 µM, first compound 1 µM): 27.8%; viability, T/C (second compound 0.03 µM, first compound 0.00316 µM): 17.8%; viability, T/C (second compound 0.03 µM, first compound 0.01 µM): 23.9%; viability, T/C (second compound 0.03 µM, first compound 0.0316 µM): 18.6%; viability, T/C (second compound 0.03 µM, first compound 0.1 µM): 17.5%; viability, T/C (second compound 0.03 µM, first compound 0.316 µM): 19.7%; viability, T/C (second compound 0.03 µM, first compound 1 µM): 18.2%; viability, T/C (second compound 0.0949 µM, first compound 0.00316 µM): 16.1%; viability, T/C (second compound 0.0949 µM, first compound 0.01 µM): 16.6%; viability, T/C (second compound 0.0949 µM, first compound 0.0316 µM): 14.8%; viability, T/C (second compound 0.0949 µM, first compound 0.1 µM): 16.2%; viability, T/C (second compound 0.0949 µM, first compound 0.316 µM): 15.1%; viability, T/C (second compound 0.0949 µM, first compound 1 µM): 19.5%; viability, T/C (second compound 0.3 µM, first compound 0.00316 µM): 17.5%; viability, T/C (second compound 0.3 µM, first compound 0.01 µM): 16.6%; viability, T/C (second compound 0.3 µM, first compound 0.0316 µM): 16.8%; viability, T/C (second compound 0.3 µM, first compound 0.1 µM): 12.5%; viability, T/C (second compound 0.3 µM, first compound 0.316 µM): 16.3%; viability, T/C (second compound 0.3 µM, first compound 1 µM): 18.8%

Reference: PubChem BioAssay AID2060887 (Molecular Pharmacology Branch, DTP, NCI, 2025)
